Source: ChEMBL document CHEMBL1127882, “Synthesis of coumarins as subtype-selective inhibitors of monoamine oxidase” (Bioorg Med Chem Lett, 1994)
pIC50: −log10 of the molar value.

Legend:
[1] = biological target: T1, Amine oxidase [flavin-containing] A (Rattus norvegicus, UniProt P21396); assay: In vitro inhibitory against monoamine oxidase A (MAO-A) in rat brain homogenate.; format: tissue-based
T1 sequence (P21396 whole entry): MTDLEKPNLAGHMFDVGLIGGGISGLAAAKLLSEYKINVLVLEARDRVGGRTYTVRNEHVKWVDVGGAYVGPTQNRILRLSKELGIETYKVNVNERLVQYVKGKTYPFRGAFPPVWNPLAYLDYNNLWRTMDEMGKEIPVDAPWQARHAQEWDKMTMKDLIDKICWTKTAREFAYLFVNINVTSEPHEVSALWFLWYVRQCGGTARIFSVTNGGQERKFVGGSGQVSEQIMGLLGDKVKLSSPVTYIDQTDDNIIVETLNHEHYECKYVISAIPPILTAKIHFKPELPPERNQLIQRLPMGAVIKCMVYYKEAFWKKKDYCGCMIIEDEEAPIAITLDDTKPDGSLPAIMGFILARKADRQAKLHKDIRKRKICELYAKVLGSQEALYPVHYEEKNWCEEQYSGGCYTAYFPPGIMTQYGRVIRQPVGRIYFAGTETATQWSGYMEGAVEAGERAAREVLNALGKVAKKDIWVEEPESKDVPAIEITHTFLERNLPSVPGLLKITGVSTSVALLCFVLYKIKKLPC

[2] = biological target: T2, Amine oxidase [flavin-containing] B (Rattus norvegicus, UniProt P19643); assay: In vitro inhibitory activity against monoamine oxidase B (MAO-B) in rat brain homogenate.; format: tissue-based
T2 sequence (P19643 whole entry): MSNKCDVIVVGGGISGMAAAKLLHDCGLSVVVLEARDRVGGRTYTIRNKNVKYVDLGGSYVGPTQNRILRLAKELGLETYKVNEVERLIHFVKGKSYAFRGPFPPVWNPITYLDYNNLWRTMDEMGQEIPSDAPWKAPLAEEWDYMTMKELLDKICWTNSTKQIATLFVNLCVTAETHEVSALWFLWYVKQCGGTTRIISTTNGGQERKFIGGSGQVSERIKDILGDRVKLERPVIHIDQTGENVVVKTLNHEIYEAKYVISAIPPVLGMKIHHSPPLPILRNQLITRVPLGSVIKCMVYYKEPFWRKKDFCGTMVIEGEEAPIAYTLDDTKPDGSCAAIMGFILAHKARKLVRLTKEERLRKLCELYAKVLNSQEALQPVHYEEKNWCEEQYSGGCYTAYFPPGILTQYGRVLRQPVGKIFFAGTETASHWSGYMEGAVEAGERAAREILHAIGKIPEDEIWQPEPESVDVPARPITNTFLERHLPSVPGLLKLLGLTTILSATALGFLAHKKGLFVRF

Row | SMILES | pIC50 [1] | pIC50 [2]
1 | Cc1c(C)c2ccc(OCc3cc(C4CC4)on3)cc2oc1=O | 5.15 | 9.10
2 | COc1ccc2c(C)c(C)c(=O)oc2c1 | 7.15 | 9.30
3 | CCCCCCCCS(=O)(=O)Oc1ccc2c(C)c(C)c(=O)oc2c1 | – | < 5.00
4 | Cc1c(C)c2ccc(O)cc2oc1=O | ~5.00 | < 5.00
5 | Cc1c(C)c2ccc(OCc3nnc(C(C)C)s3)cc2oc1=O [ATIBEPRONE] | < 5.00 | 9.05
6 | Cc1c(C)c2ccc(OCc3csc(C(C)C)n3)cc2oc1=O | 5.00 | 8.85
7 | Cc1c(C)c2ccc(OCc3nc(C(C)C)no3)cc2oc1=O | < 5.00 | –
8 | Cc1c(C)c2ccc(OS(C)(=O)=O)cc2oc1=O | – | < 5.00
9 | COc1cc(Br)c2oc(C3CCNCC3)cc2c1 [BROFAROMINE] | 8.30 | –
10 | Cc1c(C)c2ccc(OC(C)c3ccc(C(C)C)cc3)cc2oc1=O (stereo not given) | < 5.00 | 5.00
11 | CCS(=O)(=O)Oc1ccc2c(C)c(C)c(=O)oc2c1 [ESUPRONE] | – | 5.30
12 | Cc1nnc(COc2ccc3c(C)c(C)c(=O)oc3c2)o1 | 5.25 | 7.82
13 | CCCCCS(=O)(=O)Oc1ccc2c(C)c(C)c(=O)oc2c1 | 7.80 | 5.66
14 | Cc1c(C)c2ccc(OCc3ccccn3)cc2oc1=O | 5.74 | 8.05
15 | Cc1c(C)c2ccc(OCc3ccc(C(C)C)cc3)c(C)c2oc1=O | < 5.00 | < 5.00
